Assay [1] deals with cholesterol-cholic acid fed rats. Nature of the assay: Determination of hypolipdemic activity in cholesterol-cholic acid fed rats. Type of assay: in vivo, rat. The conditions noted are these: serum on fourth day. The text has this: (ii) Determination of hypolipdemic activity in cholesterol-cholic acid fed rats
Male Sprague-Dawley rats (CD, Charles River) each weighing 200-300 g were used. Hypercholesterolemia was induced in the rats by administration of a diet enriched to 0.4% cholesterol, 0.2% cholic acid. Prior to the adminstration of the diet, blood samples were collected under halothane anesthesia by cardiac puncture to determine baseline lipid levels. The blood was allowed to clot and serum was obtained for the analysis of total cholesterol, dextran-precipitable lipoproteins cholesterol (VLDL+LDL) and total triglycerides. The rats were divided into groups so that each group had similar average baseline serum lipid levels. Five days after the initial blood sampling, administration of each test compound and the cholesterol-cholic acid-enriched diet was begun. Compounds to be tested by gavage were administered b.i.d. in either 0.5% methyl cellulose or 5% sodium bicarbonate a 9:00 a.m. and 3:00 p.m. for three days and at 9:00 a.m. on the fourth day. Compounds administered as part of the diet were dissolved in ethanol and sprayed on to the diet. The ethonol was allowed to evaporate and the diet given to the rats for three days. On the fourth day, blood samples were collected and the final serum lipid levels determined. All blood samplings were taken after a four-hour fast.

The test system of assay [2] is ACAT. Nature of the assay: In vitro assay for the inhibition of ACAT activity. Type of assay: biochemical, rat. The conditions noted are these: hepatic microsomes of cholesterol/cholic acid fed male CD rats, [14C]oleoyl-CoA incorporation. As to the method: (i) In vitro assay for the inhibition of ACAT activity
ACAT activity was determined as described By Ross et al by the incorporation of [^14 C]oleoyl-CoA into cholesterol [^14 C]oleate using hepatic microsomes as the source of both ACAT and cholesterol. Microsomes were prepared from the livers of male CD rats fed a 0.4% cholesterol/0.2% cholic acid diet 3.5 days before sacrifice. Various concentrations of a test compound were preincubated with a 0.5 mg/ml microsomal suspension and after 15 minutes a 50 μg aliquot was removed and incubated with 25 μM of [^14 C]-enriched oleoyl-CoA for 4 minutes. The reaction was terminated by the addition of 1 ml of ethanol and 4 ml of hexane. After shaking, the hexane layer was removed and evaporated to dryness. The hexane extract was then reconstituted in 150 μl of HPLC solvent and injected on to a B&J OD5 Reverse Phase C18 column using an isocratic mobile phase of acetonitrile: isopropanol:heptane (50:40:10) in 0.5% acetic acid at a flow rate of 1.0 ml/min. The product of the reaction, [^14 C]oleoyl cholesterol, was measured using a Flow One radiometric detector. The ACAT IC50 value for each compound was determined from a plot of % inhibition from control vs inhibitor concentration.

As for `CCCCCCCN(CCc1ccc(OC(C)(C)C(=O)O)cc1)C(=O)Nc1ccc(OC)cc1OC` [Synthetic Example 2, 2-(4-{2-[3-(2,4-dimethoxyphenyl)-1-heptylureido]ethyl}phenoxy)-2-methylpropionic acid], the entries for the “reduced LDL-cholestrol by” value in assay [1] (dose of 5 mg/kg) and in assay [1] (dose of 25 mg/kg) were 41-71% and 61%, respectively. In assay [2], this molecule had an IC50 of 3.4 µM.
On to `CCCCCCCN(Cc1ccc(OC(C)(C)C(=O)O)cc1)C(=O)Nc1ccc(OC)cc1OC` [Synthetic Example 1, 2-(4-{[3-(2,4-dimethoxyphenyl)-1-heptylureido]methyl}phenoxy)-2-methylpropionic acid], for which the “reduced LDL-cholestrol by” value in assay [1] (dose of 25 mg/kg) is reported as 55%; in assay [1] (dose of 50 mg/kg) it was 67%. The molecule further showed an IC50 in assay [2] of 4.5 µM.
Take `CCCCCCCN(CCc1ccc(OC(C)(C)C(=O)O)cc1)C(=O)Nc1ccc(F)cc1F` [Synthetic Example 3, 2-(4-{2-[3-(2,4-difluorophenyl)-1-heptylureido]ethyl}phenoxy)-2-methypropionic acid]: the “reduced LDL-cholestrol by” value was found to be 90% in assay [1] (dose of 0.5 mg/kg) and 74% in assay [1] (dose of 2 mg/kg). In assay [2], this molecule showed an IC50 of 7.6 µM.
